From patent US20260207602A1, “EGFR INHIBITORS” (Blueprint Medicines Corporation, priority 2022, published 2026)

What was measured:
[1] = target: intracellular phosphorylation of EGFR (Tyr1068) in PC-9 cells (Homo sapiens, UniProt P00533, DEL746-750); experiment: PC-9 pEGFR AlphaLISA assay; format: cell-based; conditions: 4 hours incubation, read-out: Phos EGFR PC9 IC50
Method: PC-9/A431 pEGFR AlphaLISA Assays
Inhibitory effects of compounds were evaluated in cellular assays that measure level of intracellular phosphorylation of EGFR in PC-9 (ECACC, #90071810, Milipore/Sigma) and A431 cell lines (ATCC, CRL-1555) using AlphaLISA sureFire ultra p-EGFR (Tyr1068) assay kit (PerkinElmer, ALSU-PEGFR-A50K). PC-9 cells were seeded at 3.125×10^5 cells/ml in 40 μL phenol-free DMEM supplemented with 10% FBS per well of a 384 well plate (Corning, 3764), while A431 were seeded at […] in 40 μL in phenol-free DMEM with 0.5% FBS. Cells were allowed to adhere overnight at 37° C./5% CO2. On the next day, compounds were transferred at 4-fold, 10-point serial dilution from compound source plate to cell plates using liquid handler Echo550 and were incubated at 37° C./5% CO2 for 4 hours. A431 cells were stimulated prior harvesting for 10 min with EGF at final concentration of 30 ng/ml in the incubator. Medium was removed from the plates and cells were lysed with 10 μL of 1× AlphaLISA lysis buffer (supplemented with 1× protease/phosphatase inhibitor cocktail) followed by shaking at 600 rpm for 30 minutes at room temperature. Lysates were transferred to Optiplate (Apricot designs) and 5 ul of 1× acceptor bead mix (prepared just before use) was added to each well followed by incubation at room temperature for 1.5-2 h in dark. Then 5 μL of freshly-made donor bead mix is added to each well under subdued lighting or green filters, was mixed well on the shaker and the plate was sealed and left for an overnight incubation at room temperature in dark. On the next day, the plate was read the Envision using standard AlphaLisa settings. Percent of pEGFR inhibition was plotted against log concentration of compounds to generate IC50 values.

[2] = target: T1, EGFR L858R (Homo sapiens, UniProt P00533, L858R); experiment: Biochemical EGFR inhibition assay (Caliper mobility shift), EGFR L858R; conditions: biochemical Caliper mobility shift assay, EGFR L858R enzyme; read-out: Enz EGFR L858R IC50
T1 construct: purchased SignalChem E10-122BG
T1 sequence (P00533 25-1210 L858R): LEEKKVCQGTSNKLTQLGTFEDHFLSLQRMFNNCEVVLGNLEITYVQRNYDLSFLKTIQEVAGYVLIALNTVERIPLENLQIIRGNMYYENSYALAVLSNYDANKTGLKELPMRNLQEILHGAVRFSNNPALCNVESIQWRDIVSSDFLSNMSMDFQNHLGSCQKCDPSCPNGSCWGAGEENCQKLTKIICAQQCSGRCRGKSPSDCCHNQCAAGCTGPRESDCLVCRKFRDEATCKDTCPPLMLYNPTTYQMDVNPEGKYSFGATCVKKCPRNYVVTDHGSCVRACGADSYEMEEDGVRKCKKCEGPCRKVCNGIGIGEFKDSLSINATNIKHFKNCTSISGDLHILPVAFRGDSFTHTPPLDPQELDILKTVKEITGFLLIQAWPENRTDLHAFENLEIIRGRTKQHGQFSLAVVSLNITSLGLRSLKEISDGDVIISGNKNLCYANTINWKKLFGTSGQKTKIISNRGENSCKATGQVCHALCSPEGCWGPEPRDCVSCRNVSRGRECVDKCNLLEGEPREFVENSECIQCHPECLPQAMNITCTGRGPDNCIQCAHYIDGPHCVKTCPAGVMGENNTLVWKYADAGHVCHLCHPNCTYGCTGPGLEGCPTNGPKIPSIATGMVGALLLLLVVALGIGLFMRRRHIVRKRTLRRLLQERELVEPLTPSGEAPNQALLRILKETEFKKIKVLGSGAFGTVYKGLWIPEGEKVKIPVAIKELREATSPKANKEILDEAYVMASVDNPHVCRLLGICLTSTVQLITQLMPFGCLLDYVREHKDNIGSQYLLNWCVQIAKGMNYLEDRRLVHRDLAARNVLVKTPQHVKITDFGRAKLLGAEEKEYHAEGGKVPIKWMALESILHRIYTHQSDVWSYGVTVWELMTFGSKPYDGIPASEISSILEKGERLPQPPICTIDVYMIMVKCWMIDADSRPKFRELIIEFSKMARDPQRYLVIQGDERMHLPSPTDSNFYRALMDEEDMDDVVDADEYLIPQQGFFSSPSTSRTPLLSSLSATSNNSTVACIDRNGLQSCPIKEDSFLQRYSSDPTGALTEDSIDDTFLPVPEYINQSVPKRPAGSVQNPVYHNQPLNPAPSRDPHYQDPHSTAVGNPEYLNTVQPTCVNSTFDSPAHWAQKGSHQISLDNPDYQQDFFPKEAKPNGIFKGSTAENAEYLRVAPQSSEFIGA
Method: (§1) Inhibitory effects of the compounds of the disclosure were measured in biochemical assays that measure the phosphorylation activity of EGFR enzyme phosphorylates 2.5 micromolar 5-FAM-[…]-CONH2 peptide substrate (ProfilerPro Kinase Peptide Substrate 22, PerkinElmer, Part #760366) in the presence of adenosine-5′-triphosphate (ATP) and varying concentrations of the test compound in 100 mM 2-[4-(2-hydroxyethyl)piperazin-1-yl]ethanesulfonic acid (HEPES), pH 7.5, 10 mM MgCl2, 0.015% Brij-35, 1 mM dithiothreitol (DTT), 1.0% dimehylsulfoxide (DMSO). Assays were performed at 1.0 mM ATP or at ATP Km of the EGFR enzymes. Reactions proceeded until between 10% to 20% total peptides were phosphorylated at room temperature (25° C.) and were terminated with 35 mM 2,2′,2″,2′″-(ethane-1,2-diyldinitrilo)tetraacetic acid (EDTA). Product was detected using the Caliper mobility shift detection method where the phosphorylated peptide (product) and substrate were electrophoretically separated and measured. Percent activity was plotted against log concentration of compound and points to generate an apparent IC50. The following enzyme forms of • EGFR were examples that were used in these assays: • EGFR WT (SignalChem, E10-112G) • EGFR L858R (SignalChem, E10-122BG) • EGFR (d746-750) (SignalChem, E10-122JG) • EGFR L858R C797S (SignalChem, E10-122ZG) • EGFR (d746-750) C797S (SignalChem, E10-122TG)

[3] = target: T2, EGFR (d746-750) (Homo sapiens, UniProt P00533, DEL746-750); experiment: Biochemical EGFR inhibition assay (Caliper mobility shift), EGFR (d746-750); conditions: biochemical Caliper mobility shift assay, EGFR Exon 19-del enzyme; read-out: Enz EGFR Exon 19-del IC50
T2 construct: purchased SignalChem E10-122JG
T2 sequence (P00533 with tags, fused parts or gaps DEL746-750 limits assumed): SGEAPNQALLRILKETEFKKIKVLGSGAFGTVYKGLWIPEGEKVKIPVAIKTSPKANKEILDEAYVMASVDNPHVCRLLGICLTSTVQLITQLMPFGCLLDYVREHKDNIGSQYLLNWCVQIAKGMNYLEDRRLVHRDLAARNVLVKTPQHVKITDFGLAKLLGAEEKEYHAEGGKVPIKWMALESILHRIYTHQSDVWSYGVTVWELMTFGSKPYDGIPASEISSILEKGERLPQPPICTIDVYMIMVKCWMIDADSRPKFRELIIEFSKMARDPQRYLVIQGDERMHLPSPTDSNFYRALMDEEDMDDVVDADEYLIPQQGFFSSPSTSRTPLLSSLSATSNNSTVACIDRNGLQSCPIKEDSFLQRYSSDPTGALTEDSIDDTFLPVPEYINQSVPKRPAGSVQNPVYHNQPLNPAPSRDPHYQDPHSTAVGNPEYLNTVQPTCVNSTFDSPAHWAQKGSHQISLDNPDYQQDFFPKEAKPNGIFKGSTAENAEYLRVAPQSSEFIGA
Method: as §1

Sequence of intracellular phosphorylation of EGFR (Tyr1068) in PC-9 cells (P00533 with tags, fused parts or gaps DEL746-750): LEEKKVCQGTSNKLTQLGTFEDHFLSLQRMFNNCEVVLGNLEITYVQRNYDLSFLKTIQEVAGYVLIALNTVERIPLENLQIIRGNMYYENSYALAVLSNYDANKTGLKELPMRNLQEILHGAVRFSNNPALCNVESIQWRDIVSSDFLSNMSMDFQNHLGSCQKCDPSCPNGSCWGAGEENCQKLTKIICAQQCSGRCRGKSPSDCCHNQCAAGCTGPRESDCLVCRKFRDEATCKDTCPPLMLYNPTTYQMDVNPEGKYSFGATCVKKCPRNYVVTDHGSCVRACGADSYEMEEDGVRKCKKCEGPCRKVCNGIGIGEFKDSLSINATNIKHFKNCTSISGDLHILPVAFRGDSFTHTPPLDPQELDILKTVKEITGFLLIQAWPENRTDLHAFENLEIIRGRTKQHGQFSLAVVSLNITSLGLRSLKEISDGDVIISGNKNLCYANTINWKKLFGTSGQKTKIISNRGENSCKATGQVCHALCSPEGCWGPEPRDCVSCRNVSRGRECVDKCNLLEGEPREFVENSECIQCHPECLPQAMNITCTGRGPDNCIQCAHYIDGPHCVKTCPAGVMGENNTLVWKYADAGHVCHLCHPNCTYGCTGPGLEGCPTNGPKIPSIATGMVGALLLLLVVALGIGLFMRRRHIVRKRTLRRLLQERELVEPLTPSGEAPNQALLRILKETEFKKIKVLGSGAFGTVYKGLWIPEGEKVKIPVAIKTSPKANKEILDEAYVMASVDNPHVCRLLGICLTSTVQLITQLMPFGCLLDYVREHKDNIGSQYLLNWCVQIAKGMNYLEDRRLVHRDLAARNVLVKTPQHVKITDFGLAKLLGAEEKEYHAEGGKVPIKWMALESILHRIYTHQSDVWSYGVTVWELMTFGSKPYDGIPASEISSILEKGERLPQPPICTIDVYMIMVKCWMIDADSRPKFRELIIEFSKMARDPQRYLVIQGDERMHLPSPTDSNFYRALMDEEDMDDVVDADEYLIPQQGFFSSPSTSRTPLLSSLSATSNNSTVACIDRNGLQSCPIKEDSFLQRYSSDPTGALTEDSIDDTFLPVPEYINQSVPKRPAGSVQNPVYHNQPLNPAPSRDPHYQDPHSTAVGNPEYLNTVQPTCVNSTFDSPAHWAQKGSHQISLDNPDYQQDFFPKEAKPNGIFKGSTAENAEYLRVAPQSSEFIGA

| IC50 [1] | IC50 [2] | IC50 [3] | Structure (SMILES) |
| --- | --- | --- | --- |
| 0.0101 to 0.05 µM | 0.0101 to 0.05 µM | ≤ 0.01 µM | COc1nn(C)cc1-c1cc(O[C@@H]2COC[C@H]2F)c2c(Nc3ccc4ncsc4c3)ncnc2c1 (racemic) [Example 8, trans-N-(5-((-4-fluorotetrahydrofuran-3-yl)oxy)-7-(3-methoxy-1-methyl-1H-pyrazol-4-yl)quinazolin-4-yl)benzo[d]thiazol-6-amine] |
| 0.0101 to 0.05 µM | ≤ 0.01 µM | ≤ 0.01 µM | C[C@@H]1OC[C@@H]1Oc1cc(-c2cnn(C)c2)cc2ncnc(Nc3ccc4ncsc4c3)c12 (racemic) [Example 9, cis-N-(7-(1-methyl-1H-pyrazol-4-yl)-5-((-2-methyloxetan-3-yl)oxy)quinazolin-4-yl)benzo[d]thiazol-6-amine] |
| 0.0101 to 0.05 µM | ≤ 0.01 µM | ≤ 0.01 µM | C[C@@H]1OC[C@H]1Oc1cc(-c2cnn(C)c2)cc2ncnc(Nc3ccc4ncsc4c3)c12 (racemic) [Example 10, trans-N-(7-(1-methyl-1H-pyrazol-4-yl)-5-(((2S,3S)-2-methyloxetan-3-yl)oxy)quinazolin-4-yl)benzo[d]thiazol-6-amine] |
| 0.0101 to 0.05 µM | ≤ 0.01 µM | ≤ 0.01 µM | C[C@H]1COCC[C@H]1Oc1cc(-c2cnn(C)c2)cc2ncnc(Nc3ccc4ncsc4c3)c12 (racemic) [Example 25, cis-racemic N-(7-(1-methyl-1H-pyrazol-4-yl)-5-(((3S,4R)-3-methyltetrahydro-2H-pyran-4-yl)oxy)quinazolin-4-yl)benzo[d]thiazol-6-amine] |
| ≤ 0.01 µM | ≤ 0.01 µM | ≤ 0.01 µM | C[C@H]1COCC[C@@H]1Oc1cc(-c2cnn(C)c2)cc2ncnc(Nc3ccc4ncsc4c3)c12 (racemic) [Example 26, trans-racemic N-(7-(1-methyl-1H-pyrazol-4-yl)-5-(((3S,4S)-3-methyltetrahydro-2H-pyran-4-yl)oxy)quinazolin-4-yl)benzo[d]thiazol-6-amine] |
| ≤ 0.01 µM | ≤ 0.01 µM | ≤ 0.01 µM | CC(Oc1cc(-c2cnn(C)c2)cc2ncnc(Nc3ccc4ncsc4c3)c12)C(F)F (racemic) [Example 51, (rac)-N-(5-((1,1-difluoropropan-2-yl)oxy)-7-(1-methyl-1H-pyrazol-4-yl)quinazolin-4-yl)benzo[d]thiazol-6-amine] |
| ≤ 0.01 µM | ≤ 0.01 µM | ≤ 0.01 µM | CCN1CCC(Oc2cc(-c3cnn(C)c3)cc3ncnc(Nc4ccc5ncsc5c4)c23)C1=O (racemic) [Example 58, (rac)-3-((4-(benzo[d]thiazol-6-ylamino)-7-(1-methyl-1H-pyrazol-4-yl)quinazolin-5-yl)oxy)-1-ethylpyrrolidin-2-one] |
| ≤ 0.01 µM | ≤ 0.01 µM | ≤ 0.01 µM | CC(C)N1CCC(Oc2cc(-c3cnn(C)c3)cc3ncnc(Nc4ccc5ncsc5c4)c23)C1=O (racemic) [Example 62, (rac)-3-((4-(benzo[d]thiazol-6-ylamino)-7-(1-methyl-1H-pyrazol-4-yl)quinazolin-5-yl)oxy)-1-isopropylpyrrolidin-2-one] |
| 0.0101 to 0.05 µM | ≤ 0.01 µM | ≤ 0.01 µM | COc1cc2ncnc(Nc3ccc4ncsc4c3)c2cc1-c1cnn([C@@H]2CCNC[C@@H]2F)c1 (racemic) [Example 164, cis-N-(6-(1-((3R,4S)-3-fluoropiperidin-4-yl)-1H-pyrazol-4-yl)-7-methoxyquinazolin-4-yl)benzo[d]thiazol-6-amine] |
| ≤ 0.01 µM | ≤ 0.01 µM | ≤ 0.01 µM | COc1cc2ncnc(Nc3ccc4ncsc4c3)c2cc1-c1cnn([C@@H]2CCN(C)C[C@@H]2F)c1 (racemic) [Example 165, cis-N-(6-(1-((3R,4S)-3-fluoro-1-methylpiperidin-4-yl)-1H-pyrazol-4-yl)-7-methoxyquinazolin-4-yl)benzo[d]thiazol-6-amine] |
| 0.0101 to 0.05 µM | ≤ 0.01 µM | ≤ 0.01 µM | COc1cc2ncnc(Nc3ccc4ncsc4c3)c2cc1-c1cnn([C@H]2CCNC[C@@H]2F)c1 (racemic) [Example 168, trans-N-(6-(1-((3S,4S)-3-fluoropiperidin-4-yl)-1H-pyrazol-4-yl)-7-methoxyquinazolin-4-yl)benzo[d]thiazol-6-amine] |
| 0.0101 to 0.05 µM | ≤ 0.01 µM | ≤ 0.01 µM | COc1cc2ncnc(Nc3ccc4ncsc4c3)c2cc1-c1cnn([C@H]2CCN(C)C[C@@H]2F)c1 (racemic) [Example 169, trans-N-(6-(1-((3S,4S)-3-fluoro-1-methylpiperidin-4-yl)-1H-pyrazol-4-yl)-7-methoxyquinazolin-4-yl)benzo[d]thiazol-6-amine] |
| ≤ 0.01 µM | ≤ 0.01 µM | ≤ 0.01 µM | Cn1cc(-c2cc(O[C@@H]3CNC[C@H](F)C3)c3c(Nc4ccc5ncsc5c4)ncnc3c2)cn1 (racemic) [Example 329, cis-N-(5-(((3S,5R)-5-fluoropiperidin-3-yl)oxy)-7-(1-methyl-1H-pyrazol-4-yl)quinazolin-4-yl)benzo[d]thiazol-6-amine] |
|  | 0.0101 to 0.05 µM | ≤ 0.01 µM | C[C@H]1[C@H](Oc2cc(-c3cnn(C)c3)cc3ncnc(Nc4ccc5ncsc5c4)c23)CN1C (single isomer, unassigned) [Example 322] |
| 0.0101 to 0.05 µM | 0.0101 to 0.05 µM |  | CN1CC[C@@H](Oc2cc(-c3cnn(C)c3)cc3ncnc(Nc4ccc5ncsc5c4F)c23)C1 [Example 4, (R)-7-fluoro-N-(7-(1-methyl-1H-pyrazol-4-yl)-5-((1-methylpyrrolidin-3-yl)oxy)quinazolin-4-yl)benzo[d]thiazol-6-amine] |
|  | > 0.0501 µM | 0.0101 to 0.05 µM | COc1nn(C2CCN(C)CC2)cc1-c1cc(F)c2c(Nc3ccc4ncsc4c3F)ncnc2c1 [Example 226, 7-fluoro-N-(5-fluoro-7-(3-methoxy-1-(1-methylpiperidin-4-yl)-1H-pyrazol-4-yl)quinazolin-4-yl)benzo[d]thiazol-6-amine] |
|  | > 0.0501 µM | > 0.0501 µM | COc1cc(-c2cc(OC3CCOCC3)c3c(Nc4ccc5ncsc5c4)ncnc3c2)n(C)n1 [Example 256, N-(7-(3-methoxy-1-methyl-1H-pyrazol-5-yl)-5-((tetrahydro-2H-pyran-4-yl)oxy)quinazolin-4-yl)benzo[d]thiazol-6-amine] |
| ≤ 0.01 µM | ≤ 0.01 µM |  | COc1cc2c(Nc3ccc4ncsc4c3F)ncnc2cc1-c1cnn(C)c1 [Example 265, 7-fluoro-N-(6-methoxy-7-(1-methyl-1H-pyrazol-4-yl)quinazolin-4-yl)benzo[d]thiazol-6-amine] |
|  | ≤ 0.01 µM | ≤ 0.01 µM | COc1cc2ncnc(Nc3ccc4ncsc4c3)c2cc1N[C@@H]1CCN(C)C[C@H]1F [Example 301, N4-(benzo[d]thiazol-6-yl)-N6-((3R,4R)-3-fluoro-1-methylpiperidin-4-yl)-7-methoxyquinazoline-4,6-diamine] |
|  | > 0.0501 µM | > 0.0501 µM | CN1CCN(c2cc(OC3CCOCC3)c3c(Nc4ccc5ncsc5c4)ncnc3c2)CC1(C)C [Example A58, N-(5-((tetrahydro-2H-pyran-4-yl)oxy)-7-(3,3,4-trimethylpiperazin-1-yl)quinazolin-4-yl)benzo[d]thiazol-6-amine] |

| Structure (SMILES) | IC50 [1] | IC50 [2] | IC50 [3] |
| --- | --- | --- | --- |
| CN1CCN(C(=O)Oc2cc(OC3CCOCC3)c3c(Nc4ccc5ncsc5c4)ncnc3c2)CC1 [Example A11, 4-[(1,3-benzothiazol-6-yl)amino]-5-(oxan-4-yloxy)quinazolin-7-yl 4-methylpiperazine-1-carboxylate] |  | > 0.0501 µM | 0.0101 to 0.05 µM |
